Calls of active or inactive are those of the source.
What was measured:
HepG2 = test: Cytotoxicity against human HepG2 cells at 10 uM; format: functional, cell-based
A549 = test: Cytotoxicity against human A549 cells at 10 uM; format: functional, cell-based
PC-9 = test: Cytotoxicity against human PC9 cells at 10 uM; format: functional, cell-based
HaCaT [1] = test: Upregulation of Nrf2 protein expression in human HaCaT cells transfected with Nrf2-siRNA at 20 uM after 6 hrs by Western blot analysis; format: functional, cell-based
[2] = target: T1, MAP kinase p38 (Homo sapiens) (UniProt O15264+Q15759+Q16539+P53778); test: Activation of MAPK p38 in human HaCaT cells assessed as upregulation of Nrf2 mRNA expression measured up to 6 hrs RT-qPCR analysis; format: cell-based
HaCaT [3] = test: Cytoprotective activity against H2O2-induced cell damage in human HaCaT cells assessed as cell survival preincubated for 20 hrs followed by H2O2 addition measured after 4 hrs by WST-8 assay; format: functional, cell-based
HaCaT [4] = test: Cytotoxicity against human HaCaT cells assessed as reduction in cell viability at 5 to 20 uM after 24 to 48 hrs by WST-8 assay; format: cell-based
[5] = target: T2, Nuclear factor erythroid 2-related factor 2 (Homo sapiens) (UniProt Q16236); test: Activation of Nrf2 in human HaCaT cells assessed as increase in HO-1 expression level at 20 uM by Western blot analysis; format: cell-based; settings: TDE = time-dependent effect
T2 sequence (whole entry): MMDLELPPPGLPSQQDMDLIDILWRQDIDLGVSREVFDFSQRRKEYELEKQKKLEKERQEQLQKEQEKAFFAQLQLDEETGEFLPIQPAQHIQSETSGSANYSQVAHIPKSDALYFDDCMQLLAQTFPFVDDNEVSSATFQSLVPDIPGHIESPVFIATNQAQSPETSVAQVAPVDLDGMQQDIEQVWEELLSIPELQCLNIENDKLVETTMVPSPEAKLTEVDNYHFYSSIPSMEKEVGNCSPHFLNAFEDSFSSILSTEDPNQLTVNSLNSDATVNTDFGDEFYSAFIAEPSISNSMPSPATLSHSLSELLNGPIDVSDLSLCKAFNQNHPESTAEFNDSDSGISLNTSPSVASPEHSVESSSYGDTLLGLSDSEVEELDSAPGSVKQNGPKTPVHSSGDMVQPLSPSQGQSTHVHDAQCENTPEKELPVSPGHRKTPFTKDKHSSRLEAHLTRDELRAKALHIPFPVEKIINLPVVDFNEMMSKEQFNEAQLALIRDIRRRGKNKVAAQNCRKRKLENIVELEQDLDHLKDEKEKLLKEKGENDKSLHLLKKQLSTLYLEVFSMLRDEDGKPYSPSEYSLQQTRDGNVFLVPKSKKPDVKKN

[6] = target: T1, MAP kinase p38 (Homo sapiens); test: Induction of MAPK p38 phosphorylation in human HaCaT cells at 20 uM up to 6 hrs by Western blot analysis; format: cell-based
[7] = target: T2, Nuclear factor erythroid 2-related factor 2 (Homo sapiens); test: Activation of Nrf2 in human HaCaT cells assessed as increase in HO-1 mRNA expression at 20 uM by Western blot analysis; format: cell-based; settings: TDE = time-dependent effect
[8] = target: T2, Nuclear factor erythroid 2-related factor 2 (Homo sapiens); test: Activation of Nrf2 in human HaCaT cells assessed as increase in HO-1 expression level after 12 hrs by Western blot analysis; format: cell-based
[9] = target: T1, MAP kinase p38 (Homo sapiens); test: Activation of MAPK p38 in human HaCaT cells assessed as upregulation of Nrf2 mRNA expression at 20 uM measured up to 6 hrs RT-qPCR analysis; format: cell-based
[10] = target: T2, Nuclear factor erythroid 2-related factor 2 (Homo sapiens); test: Activation of Nrf2 in human HaCaT cells assessed as increase in HO-1 mRNA expression after 12 hrs by RT-qPCR analysis; format: cell-based
[11] = target: T1, MAP kinase p38 (Homo sapiens); test: Induction of MAPK p38 phosphorylation in human HaCaT cells at 20 uM after 2 hrs in presence of MAPK p38 inhibitor SB239063 by Western blot analysis; format: cell-based
[12] = target: T2, Nuclear factor erythroid 2-related factor 2 (Homo sapiens); test: Activation of Nrf2 in human HaCaT cells assessed as upregulation of HO-1 protein expression at 20 uM after 12 hrs in presence of MAPK p38 inhibitor SB239063 by Western blot analysis; format: cell-based
[13] = target: T2, Nuclear factor erythroid 2-related factor 2 (Homo sapiens); test: Activation of Nrf2 in human HaCaT cells transfected with ARE-luciferase containing ARE consensus sequence assessed as Nrf2 binding to ARE at 20 uM after 6 hrs by luciferase reporter gene assay; format: cell-based
[14] = target: T1, MAP kinase p38 (Homo sapiens); test: Activation of MAPK p38 in human HaCaT cells assessed as nuclear translocation of Nrf2 at 20 uM after 6 hrs by DAPI staining-based immunofluorescence microscopic method; format: cell-based
HaCaT [15] = test: Induction of ARE promoter activity in human HaCaT cells transfected with Nrf2-siRNA at 5 to 20 uM after 6 hrs by luciferase reporter gene assay; format: functional, cell-based
[16] = target: T1, MAP kinase p38 (Homo sapiens); test: Activation of MAPK p38 in human HaCaT cells assessed as upregulation of Nrf2 protein expression in nucleus at 20 uM after 6 hrs in presence of MAPK p38 inhibitor SB239063 by Western blot analysis; format: cell-based
[17] = target: T1, MAP kinase p38 (Homo sapiens); test: Activation of MAPK p38 in human HaCaT cells assessed as nuclear translocation of Nrf2 at 10 uM measured after 6 hrs Western blot analysis; format: cell-based
HaCaT [18] = test: Upregulation of HO-1 protein expression in human HaCaT cells transfected with Nrf2-siRNA at 20 uM after 6 hrs by Western blot analysis; format: functional, cell-based
[19] = target: T1, MAP kinase p38 (Homo sapiens); test: Activation of MAPK p38 in human HaCaT cells assessed as nuclear translocation of Nrf2 measured after 6 hrs by Western blot analysis; format: cell-based

Measured: Activity

COc1ccc2cc(NC(=O)C3=NO[C@H]4[C@H](O)C=C[C@@H](Cl)[C@@]4(O)C3)c(=O)oc2c1OC
active: HepG2 | A549 | PC-9

COc1ccc2cc(N(C)C(=O)C3=NO[C@H]4[C@H](O)C=C[C@@H](Cl)[C@@]4(O)C3)c(=O)oc2c1OC
inactive: HaCaT [1] | [11] | [12] | HaCaT [15] | [16] | HaCaT [18]
Non-Toxic: HaCaT [4]
active: [2] Dose-dependent effect | HaCaT [3] Dose-dependent effect | [5] Tde | [6] | HepG2 | [7] Tde | [8] Dose-dependent effect | [9] | A549 | [10] Dose-dependent effect | [13] | [14] | [17] | [19] Dose-dependent effect | PC-9

Source: ChEMBL document CHEMBL4177697, “N-Me-trichodermamide B isolated from Penicillium janthinellum, with antioxidant properties through Nrf2-mediated signaling pathway” (Bioorg Med Chem, 2017)
